In patent publication US20010046996A1, “Use of a compound for preparing a drug” (priority 2000, published 2001):

What was measured:
Format in all cases: in vivo
mice = test: Chronic toxicity on mice; details: tested up to 270 days
rat = test: Acute toxicity, rat
Method: (§1) The tested substance(B-220), was administered daily with 6 mg/animal, a dose that can be increased since the margin to toxic effects is wide and most likely further reduce the symptoms. It is to be noted that the acute toxicity of the tested substance used according to the present invention is low, which is exemplified with the following: […]

rabbit = test: Acute toxicity, cutaneous, rabbit
Method: as §1

Lewis rats = test: EAE (experimental autoimmune encephalomyelitis) rat model for MS, clinical score; details: for delay of onset / recovery starts earlier: FIG. 2, versus control

With `Cc1cc2nc3c4ccccc4n(CCN(C)C)c3nc2cc1C` [B-220] the chronic toxicity (mice) was “has not induced toxicity”, the LD50 (rat; intravenous) was greater than 100 mg/kg bw and the “NOEL (No Observable Effect Level)” value (rat; intravenous) was 12.5 mg/kg bw. For the same compound, the LD50 (rat; oral) was greater than 800 mg/kg bw, the “NOEL (No Observable Effect Level)” value (rabbit) was 200 mg/kg bw and the “reduction of the CNS symptoms (clinical score)” value (Lewis rats; FIG. 1, B-220 daily 6 mg/animal, Interferon-beta daily 3×10^5 U/animal, versus negative control) was 2/3. The delay of onset (Lewis rats; 6 mg/animal) was roughly 2 days, the recovery starts earlier (Lewis rats; 6 mg/animal) was roughly 2 days and the delay of onset (Lewis rats; 12 mg/animal) was roughly 4 days. It also gave a recovery starts earlier (Lewis rats; 12 mg/animal) of roughly 3 days.
